{
  "source": "patent US9974839B2",
  "about": "“Self-assembled toroidal-spiral particles and manufacture and uses thereof” (THE BOARD OF TRUSTEES OF THE UNIVERSITY OF ILLINOIS, priority 2009, dated 2018)",
  "origin": "cited, not measured here",
  "tested_on": "mitogenic activity",
  "settings": "in vitro",
  "data": [
    {"substance": "mono-PEGylated epidermal growth factor (EGF) with PEG 3400 at Lys28 and Lys48: literature EGF mono-PEGylated with PEG 3400 at Lys28 and Lys48 (ref. 28) (NSDSECPLSHDGYCLHDGVCMYIEALDKYACNCVVGYIGERCQYRDLKWWELR; Epidermal growth factor PEG 3400; UniProt P01133 971-1023, looked up)", "values": [
      {"measurement": "mitogenic activity relative to EGF isomer PEGylated at the amino terminus", "value": "significantly less active"}
    ]}
  ]
}
